Values joined by “and” are separate entries in the source; they are usually repeats but may differ in a detail not shown here. Equal values may be shown once.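 The compound was tested at five concentrations on cells cultured in 96-well plates, with a 48-hour exposure period. GI50 = concentration required for 50% inhibition of growth. The concentration for full growth arrest is given as TGI.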
Experiments:
Assay in all cases: DTP human tumour cell line panel, 48 h
OVCAR-8 ovarian = system: OVCAR-8 ovarian
SK-OV-3 ovarian = system: SK-OV-3 ovarian
SF-295 CNS = system: SF-295 CNS
HCC-2998 colon = system: HCC-2998 colon
SW-620 colon = system: SW-620 colon
786-0 renal = system: 786-0 renal
COLO 205 colon = system: COLO 205 colon
UO-31 renal = system: UO-31 renal
SF-268 CNS = system: SF-268 CNS
MDA-MB-231 breast = system: MDA-MB-231 breast

Compound | TGI (OVCAR-8 ovarian) | TGI (SK-OV-3 ovarian) | TGI (SF-295 CNS) [µM] | TGI (HCC-2998 colon) [µM] | TGI (SW-620 colon) [µM] | TGI (786-0 renal) [µM] | TGI (COLO 205 colon) [µM] | TGI (UO-31 renal) | TGI (SF-268 CNS) [µM] | GI50 (SK-OV-3 ovarian) | GI50 (SF-295 CNS) | GI50 (HCC-2998 colon) [µM] | GI50 (SW-620 colon) [µM] | GI50 (786-0 renal) | GI50 (COLO 205 colon) [µM] | GI50 (UO-31 renal) | GI50 (SF-268 CNS) | GI50 (OVCAR-8 ovarian) | TGI (MDA-MB-231 breast) [µM] | GI50 (MDA-MB-231 breast) [µM]
CC(C)CC1CC2C(=O)N(c3ccccc3)C(=O)C2c2[nH]c3ccccc3c21 (stereo not given) | 51.6 µM | 43.6 µM | > 94.4 | > 31.6 | > 100 | > 100 | > 100 | 79.9 µM | > 100 | – | – | – | – | – | – | – | – | – | – | –
CC(=O)CC(=O)Nc1ccc(OS(N)(=O)=O)cc1 | > 100 µM | > 100 µM | > 100 | > 100 | > 100 | > 100 | > 100 | > 100 µM | > 100 | – | – | – | – | – | – | – | – | – | – | –
CC[C@@]1(O)C(=O)OCc2c1cc1n(c2=O)Cc2cc3c(N)c(OC)ccc3nc2-1 | – | 2.29 µM | 0.41 | 0.373 | 2.87 | 0.0738 | 2.69 | 0.25 µM | – | 0.0582 µM | 0.0267 µM | 0.155 | 0.137 | < 0.0157 µM | 0.263 | 0.0547 µM | 0.0152 µM | – | – | –
NC(=O)c1c(NC(=O)c2ccc(C(F)(F)F)cc2Cl)sc2c1CCC(=O)C2 | 12.2 µM | 7.56 µM | 4.5 | 3.36 | 1.36 | 15.6 | 1.49 | 0.809 µM | 15.7 | 2.47 µM | 1.05 µM | – | 0.176 | 0.475 µM | 0.382 | 0.237 µM | 0.456 µM | 0.456 µM | – | –
O=C1C[C@@H]2[C@@H](C=CC23CCCC3)N1O | > 100 µM | > 100 µM | > 100 | > 100 | > 100 | > 100 | > 100 | > 100 µM | > 100 | – | – | – | – | – | – | – | – | – | – | –
NNC(=S)N/N=C(\c1nc2ccc(Cl)cc2[nH]c1=O)C(O)c1cccc([N+](=O)[O-])c1 (stereo not given) | > 100 µM | > 100 µM | > 100 | > 100 | 41.9 | > 62.5 | > 58.4 | > 100 µM | > 79.5 | – | – | – | – | – | – | – | – | – | – | –
COc1ccc(C2=NC(CO)[C@H](c3ccccc3)O2)cc1OC (stereo not given in full) | > 100 µM | > 100 µM | > 100 | > 100 | > 100 | > 100 | > 100 | > 100 µM | > 100 | – | – | – | – | – | – | – | – | – | – | –
CCOC(=O)N1C/C(=C\c2ccc(N(C)C)cc2)C(=O)/C(=C/c2ccc(N(C)C)cc2)C1 | > 100 µM | > 100 µM | > 100 | > 100 | > 100 | > 100 | > 100 | > 100 µM | > 100 | – | – | – | – | – | – | – | – | – | – | –
NC(=O)c1c(-c2ccccc2)c(-c2ccccc2)cc2c(=O)c3ccccc3[nH]c12 | 50 µM | 54.2 µM | > 100 | > 100 | > 100 | 21.5 | > 100 | 80.2 µM | > 100 | – | – | – | – | – | – | – | – | – | – | –
O=c1oc2cc(O)ccc2cc1-c1nc2ccccc2o1 | > 100 µM | – | > 100 | > 100 | > 100 | > 100 | 80.3 | 80.2 µM | > 100 | – | – | – | – | – | – | – | – | – | > 100 | –
CCOC(=O)CCC(NC(=O)c1ccc(Oc2nc3cc(N)cc(N)c3nc2-c2ccccc2)cc1)C(=O)OCC (stereo not given) | > 100 µM | 97.7 µM | > 100 | – | > 100 | > 100 | > 100 | > 100 µM | > 100 | 27.9 µM | 40.6 µM | – | 29.5 | 89 µM | 29.9 | 48.7 µM | 40.7 µM | 38.2 µM | 32.6 | 11.3
CN(C)Cc1c[nH]c2nc[nH]c(=O)c12 | > 100 µM | > 100 µM | > 100 | – | > 100 | 76.4 | > 100 | > 100 µM | > 100 | – | – | – | – | – | – | – | – | – | > 100 | –
CC[P+](C)(C)CC | > 100 µM | > 100 µM | > 100 | > 100 | > 100 | > 100 | > 100 | > 100 µM | > 100 | – | – | – | – | – | – | – | – | – | – | –
COc1cc(Br)c(C=Nc2cccc3ccc(OS(=O)(=O)c4ccc([N+](=O)[O-])cc4)cc23)cc1OC | > 100 µM | > 100 µM | > 100 | > 100 | > 100 | > 100 | > 100 | > 100 µM | > 100 | – | – | – | – | – | – | – | – | – | – | –
O=C1CC[C@@H]2[C@H]3CCC(=O)c4c3c(c3cccc(O)c3c4O)O[C@@]23C(=O)c2cccc(O)c2C(O)=C13 | > 100 µM | – | – | – | > 100 | > 100 | > 100 | > 100 µM | > 100 | – | – | – | > 100 | > 100 µM | > 100 | > 100 µM | > 100 µM | > 100 µM | > 100 | > 100
N/N=C1\C(=O)N(c2ccc(Cl)c(Cl)c2)C(=O)C1C(=O)Nc1ccc(Cl)c(Cl)c1 (stereo not given) | > 100 µM | – | > 100 | > 100 | > 100 | > 100 | – | 84 µM | > 100 | – | – | – | – | – | – | – | – | – | – | –
CN(COC(=O)C(C)(C)C)c1nc(N(C)COC(=O)C(C)(C)C)nc(N(C)COC(=O)C(C)(C)C)n1 | – | > 100 µM | > 100 | > 100 | 82.2 | > 100 | 35.5 | > 100 µM | > 100 | – | – | – | – | – | – | – | – | – | 68.9 | –
Cc1c(C(=O)Nc2ccc(Oc3ccnc4cc(OCC(C)(C)O)ccc34)c(F)c2)c(=O)n(-c2ccccc2)n1C | – | > 100 µM | > 100 | > 100 | – | > 100 | > 100 | – | > 100 | 6.46 µM | 0.782 µM | > 100 | – | 5.2 µM | 2.81 | – | 6.37 µM | – | – | –
CCOC(=O)C(c1ccsc1)P(=O)(OCC)OCC (stereo not given) | 43.3 µM | 77.2 µM | 34 | 33.8 | 30.8 | 31.7 | 26.7 | 28.4 µM | 69.6 | – | – | – | – | – | – | – | – | – | – | –
COc1ccc(-c2cc(-c3ccco3)c(C#N)c(=O)n2C2OC(COC(C)=O)C(OC(C)=O)C(OC(C)=O)C2OC(C)=O)cc1 (stereo not given) | > 100 µM and 40.4 µM | > 100 µM and 64.5 µM | > 100 | > 100 | > 100 | > 100 | > 100 | > 100 µM and 51.7 µM | > 100 | > 100 µM and 28.1 µM | > 100 µM and 25.7 µM | – | – | > 100 µM and 29.3 µM | – | 40.1 µM and 16.5 µM | > 100 µM and 28.2 µM | > 100 µM and 10.9 µM | – | –
